Data from US7727558B2, “Polymeric delivery agents and delivery agent compounds” (Emisphere Technologies, Inc., priority 1999, dated 2010).
“And” between values parts separate entries of the source, which are not always exact repeats. Equal entries are not always repeated.

Assay: Oral administration of rhGH with delivery agent or conjugate in rats, serum rhGH by immunoassay
Format: in vivo, Sprague-Dawley rats
Details: individual rat, 200 mg/kg conjugate = 20 mg/kg delivery agent
Method: Oral gavage (PO) and/or intracolonic (IC) dosing solutions of delivery agent compound and rhGH in water, phosphate buffer (PB) or 5% aqueous ethanol were prepared. Typically, a solution of the conjugate was prepared by mixing in water and stirred. The final dosing solutions were prepared by mixing the conjugate solution with an rhGH stock solution (typically 15 mg rhGH/ml) and diluting to the desired volume (usually 3.0 ml). The compounds and rhGH dose amounts are listed below in Table 1.
Male Sprague-Dawley rats weighing between 200-250 g were fasted for 24 hours and administered ketamine (44 mg/kg) and chlorpromazine (1.5 mg/kg) 15 minutes prior to dosing. A dosing group of five rats was administered one of the dosing solutions. For oral gavage (PO), an […] Rusch 8 French catheter was adapted to a 1 ml syringe with a pipette tip. The syringe was filled with dosing solution by drawing the solution through the catheter, which was then wiped dry. The catheter was placed down the esophagus leaving 1 cm of tubing past the rat's incisors. Solution was administered by pressing the syringe plunger. For intracolonic (IC) dosing, a 7.5 cm Rusch catheter tube (French 8 or 6) was adapted to a syringe with an Eppendorf pipette tip. The syringe was filled with the 0.5 ml dosing solution by drawing the solution through the catheter tube. The catheter tube was wiped dry. K-Y jelly was applied to the tip, avoiding contact with the eye of the tube, and the tube was inserted into the colon through the anus until the tube was no longer visible. The solution was injected by pressing the syringe plunger, and the tube was removed.
Blood samples were collected serially from the tail artery, typically at time=0, 15, 30, 45, 60 and 90 minutes for oral and 0, 10, 20, 30, 60 and 90 for IC dosing. Serum rHGH concentrations were quantified by an rHGH immunoassay test kit (Kit # K1F4015 from Genzyme Corporation Inc., Cambridge, Mass.). Previous studies indicated baseline values of about zero.
The experiments were performed at 1/10 the delivery agent concentration versus that of the conjugate. Thus, at a dose of 200 mg/kg conjugate, the actual amount of delivery agent dosed was 20 mg/kg.

- Serum rhGH concentration, Min45 (45 min, listed as (a)): 35.53 and 0 (4×) and 4.29 and 18.35
- Serum rhGH concentration, Min90 (90 min, listed as (a)): 2.715 and 0 (5×) and 1.47
- Serum rhGH concentration, Base line (baseline (time 0)): 0
Structure (SMILES): O=C(O)CCCCCCCNC(=O)c1ccccc1O [delivery agent I]
- Serum rhGH concentration, Min15 (15 min, listed as (a)): 45.34 and 0 and 64.2 and 43.14 and 84.73 and 79.98 and 48.72
- Serum rhGH concentration, Min30 (30 min, listed as (a)): 46.52 and 58.44 and 18.99 and 23.44 and 13.19 and 22.69 and 1.82
- Serum rhGH concentration, Min60 (60 min, listed as (a)): 34.885 and 3.922 and 10.13 and 15.93 and 10.565 and 5.49 and 7.905
